Measurements: patent US12521363B2, “Use of levodopa, carbidopa and entacapone for treating Parkinson's disease” (ORION CORPORATION, priority 2010, dated 2026)
Each block holds one compound with its values, some of them ahead of it.

What was measured:
[1] = cited from earlier work
[2] = Repeated-dose levodopa/carbidopa pharmacokinetics with and without entacapone, human subjects (Example 1); type: in vivo; conditions: for levodopa pharmacokinetics, effect of increasing the carbidopa dose: repeated dosing 4 times a day, levodopa 100 mg, carbidopa 25/50/100 mg
Text: The primary objective of the study was to evaluate the effects of different carbidopa dose levels on the pharmacokinetics (PKs) of levodopa with and without concomitant administration of entacapone. This was the first study to evaluate the effect of the combinations in a repeated dose setting in human subjects. Pharmacokinetics of levodopa in the presence of AADC and COMT inhibition with substances like carbidopa and entacapone is complex and difficult to model based on single dose PK data in humans, or animal models. However, it has been shown earlier that levodopa PK in healthy subjects is similar to that seen in PD patients and therefore the results of this study indicate how the levodopa PK will be in PD patients and how the levodopa PK will predict symptom control of PD. A total of 25 human subjects were enrolled into the study. The study subjects were randomly allocated to receive either 200 mg of entacapone or corresponding placebo in each treatment period. Entacapone, or a corresponding placebo, was administered concomitantly with 100 mg of levodopa and 25 mg of carbidopa at 3.5-hour intervals 4 times a day. In addition, the study subjects received in a randomised order in each treatment period one of the additional dose levels (0 mg, 25 mg, and 75 mg) of carbidopa. There were 3 treatment periods, one for each carbidopa dose level and for the same subjects with cross-over design so that each subject participated for the 3 periods. There were two groups with the same carbidopa doses, one group with and one group without concomitant entacapone administration. By this study design, the effect of entacapone on carbidopa dose escalation and subsequently to levodopa PK could be assessed in repeated dose setting in humans. Dose combinations were: • A: Entacapone 200 mg+levodopa 100 mg+carbidopa 25 mg • B: Entacapone 200 mg+levodopa 100 mg+carbidopa 50 mg • C: Entacapone 200 mg+levodopa 100 mg+carbidopa 100 mg • E: Levodopa 100 mg+carbidopa 25 mg • F: Levodopa 100 mg+carbidopa 50 mg • G: Levodopa 100 mg+carbidopa 100 mg After the first and last dose of the day, the whole levodopa and carbidopa plasma profiles were assessed and after the second and third dose only the minimum concentrations (just before the next dose at 3.5 and at 7.0 hours) were assessed.

[3] = Repeated-dose levodopa pharmacokinetics with increasing carbidopa, entacapone dose levels or tolcapone (Example 2); type: in vivo, human; conditions: repeated dosing, increased COMT-inhibition by higher entacapone dose or by tolcapone
Text: The primary objective of the study was to evaluate the effects of different carbidopa dose levels on the pharmacokinetics (PKs) of levodopa with concomitant administration of different entacapone dose levels and with the moderately potent COMT inhibitor tolcapone.
The study subjects were randomly allocated to receive either increasing doses of entacapone or standard dose of tolcapone combined with increasing doses of carbidopa in each treatment period, a total of 12 different dose combinations. Entacapone was administered concomitantly with 100 mg of levodopa and 25 mg of carbidopa at 3.5-hour intervals 4 times a day and tolcapone 3 times a day. In addition, the study subjects received increasing dose levels of carbidopa.
There were three groups, one for each carbidopa dose level, and 4 treatment periods in each group, one for each entacapone dose level or for tolcapone and for the same subjects with cross-over design so that one subject participated for the 4 periods. By this study design the effect of entacapone and tolcapone on carbidopa dose escalation and subsequently to levodopa PK could be assessed in repeated dose setting in humans.
After each levodopa dose of the day, the levodopa plasma profile was assessed. The levodopa plasma concentrations after entacapone dose escalation and tolcapone standard dose and with increased carbidopa dose are given in FIG. 3.

[4] = increased carbidopa dose in the presence of a COMT inhibitor

Structure (SMILES): Cc1c(Cl)c(C)[n+]([O-])c(Cl)c1-c1noc(-c2cc(O)c(O)c([N+](=O)[O-])c2)n1 [BIA 9-1067, 5-[3-(2,5-dichloro-4,6-dimethyl-1-oxypyridin-3-yl)-[1,2,4]oxadiazol-5-yl]-3-nitrobenzene-1,2-diol]
solubility [1]: poorly soluble

accumulation of carbidopa concentrations in plasma ([2]; increased carbidopa dose, repeated dosing, towards the end of the dosing period): no accumulation
Structure (SMILES): C[C@@](Cc1ccc(O)c(O)c1)(NN)C(=O)O [carbidopa, (−)-L-alpha-hydrazino-alpha-methyl-beta-(3,4-dihydroxybenzene)propionic acid]

Structure (SMILES): CCN(CC)C(=O)/C(C#N)=C/c1cc(O)c(O)c([N+](=O)[O-])c1 [entacapone, (E)-2-cyano-3-(3,4-dihydroxy-5-nitrophenyl)-N-diethyl-2 propenamide]
water solubility ([1]; water): poor solubility

AUC of levodopa [2, 4]: significantly increased
Cmin of levodopa [2, 4]: significantly increased
maximum concentrations of levodopa ([2]; increased carbidopa dose with COMT inhibitor): not clinically significantly increased
levodopa pharmacokinetics, effect of increasing the carbidopa dose ([2]; with entacapone 200 mg): significantly improve
levodopa pharmacokinetics, effect of increasing the carbidopa dose ([2]; without entacapone): did not have such an effect
levodopa pharmacokinetics, effect of increasing the carbidopa dose [3]: significantly improve
Structure (SMILES): N[C@@H](Cc1ccc(O)c(O)c1)C(=O)O [levodopa, (−)-L-alpha-amino-beta-(3,4-dihydroxybenzene)propanoic acid]
